The source of these data is US6720342B2, “Heterocyclic compounds and their preparation and use” (Novo Nordisk A/S, priority 1996, dated 2004).

The IC50 is the point on the concentration scale where inhibition reaches its midpoint. The low end stands for greater potency in that assay, the high end for weaker potency in that assay. The term melting point denotes the temperature of the solid-liquid transition.

Molecules are shown by their SMILES.

Data set [1] addresses muscarinic acetylcholine receptors. As to the kind of experiment: Inhibition of specific binding of 3H-Oxotremorine-M (3H-Oxo) to rat cortex membranes. The settings on record: rat cortex homogenate, 1.0 nM 3H-Oxotremorine, 30 min at 25° C. An excerpt:
The pharmacological properties of the compounds of the invention can be illustrated by determining their capability to inhibit the specific binding of ^3H-Oxotremorine-M (^3H-Oxo). Birdsdall N. J. M., Hulme E. C., and Burgen A. S. V. (1980). “The Character of Muscarinic Receptors in Different Regions of the Rat Brain”. Proc. Roy. Soc. London (Series B) 207, 1.
^3H-Oxo labels muscarinic receptor in the CNS (with a preference for agonist domains of the receptors). Three different sites are labelled by ^3H-Oxo. […] Using the present experimental conditions only the high and medium affinity sites are determined.
The inhibitory effects of compounds on ^3H-Oxo binding reflects the affinity for muscarinic acetylcholine receptors.
All preparations are performed at 0-4° C. unless otherwise indicated. Fresh cortex (0.1-1 g) from male Wistar rats (150-250 g) is homogenized for 5-10 s in 10 ml 20 mM Hepes pH: 7.4, with an Ultra-Turrax homogenizer. The homogenizer is rinsed with 10 ml of buffer and the combined suspension centrifuged for 15 min. at 40,000×g. The pellet is washed three times with buffer. In each step the pellet is homogenized as before in 2×10 ml of buffer and centrifuged for 10 min. at 40,000×g.
The final pellet is homogenized in 20 mM Hepes pH: 7.4 (100 ml per g of original tissue) and used for binding assay. Aliquots of 0.5 ml is added 25 μl of test solution and 25 μl of ^3H-Oxotremorine (1.0 nM, final concentration) mixed and incubated for 30 min. at 25° C. Non-specific binding is determined in triplicate using arecoline (1 μg/ml, final concentration) as the test substance. After incubation samples are added 5 ml of ice-cold buffer and poured directly onto Whatman GF/C glass fiber filters under suction and immediately washed 2 times with 5 ml of ice-cold buffer. The amount of radioactivity on the filters are determined by conventional liquid scintillation counting. Specific binding is total binding minus non specific binding.
Test substances are dissolved in 10 ml water (if necessary heated on a steambath for less than 5 min.) at a concentration of 2.2 mg/ml. 25-75% inhibition of specific binding must be obtained before calculation of IC50.
The test value will be given as IC50 (the concentration (nM) of the test substance which inhibits the specific binding of ^3H-Oxo by 50%).
(§1) IC50=(applied test substance concentration)×(Cx/Co−Cx)nM
(§2) where Co is specific binding in control assays and Cx is the specific binding in the test assay. (The calculations assume normal mass-action kinetics).

Data set [2] addresses T1, muscarinic receptors (M1-site, pirenzepine sensitive site) (Rattus norvegicus, UniProt P08482).
T1 construct: Fresh cortex (0.1-1 g) from male Wistar rats (150-200 g) is homogenized; from tissue; host or cells: rat (male Wistar) cerebral cortex membranes
T1 sequence (P08482 1-460): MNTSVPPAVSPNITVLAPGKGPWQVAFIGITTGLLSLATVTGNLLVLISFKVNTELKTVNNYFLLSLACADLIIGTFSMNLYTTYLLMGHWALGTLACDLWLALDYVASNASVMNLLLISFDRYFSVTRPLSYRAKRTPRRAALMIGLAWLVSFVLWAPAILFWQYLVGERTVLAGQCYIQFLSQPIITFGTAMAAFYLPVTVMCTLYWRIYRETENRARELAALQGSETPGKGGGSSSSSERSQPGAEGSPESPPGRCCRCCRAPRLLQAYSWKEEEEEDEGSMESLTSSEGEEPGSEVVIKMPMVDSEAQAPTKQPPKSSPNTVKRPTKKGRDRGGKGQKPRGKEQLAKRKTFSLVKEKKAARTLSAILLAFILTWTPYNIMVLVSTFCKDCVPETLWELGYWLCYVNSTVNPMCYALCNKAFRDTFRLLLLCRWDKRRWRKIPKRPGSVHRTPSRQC
The data set is described as follows: Inhibition of 3H-PRZ (pirenzepine, [N-methyl-3H]) binding to rat cerebral cortex membranes. The conditions noted are these: 1.0 nM 3H-Pirenzepine, 60 min at 20° C. As to the method:
Furthermore the pharmacological properties of the compounds of the invention can also be illustrated by determining their capability to inhibit ^3H-PRZ (pirenzepine, [N-methyl-^3H]) binding to rat cerebral cortex membranes. Pirenzepine binds selectively to subtype of muscarinic receptors. Historically the type is named the M1-site, whereas pirenzepine sensitive site would be more appropriate. Although selective for M1-sites pirenzepine also interact with M2-sites.
All preparations are performed at 0-4° C. unless otherwise indicated. Fresh cortex (0.1-1 g) from male Wistar rats (150-200 g) is homogenized for 5-10 s. in 10 ml 20 mM Hepes pH: 7.4, with an Ultra-Turrax homogenizer. The homogenizer is rinsed with 2×10 ml of buffer and the combined suspension centrifuged for 15 min at 40,000×g. The pellet is washed three times with buffer. In each step the pellet is homogenized as before in 3×10 ml of buffer and centrifuged for 10 min at 40,000×g.
The final pellet is homogenized in 20 mM Hepes pH: 7.4 (100 ml per g of original tissue) and used for binding assay. Aliquots of 0.5 ml is added 20 μl of test solution and 25 μl of ^3H-Pirenzepine (1.0 nM, final conc.), mixed and incubated for 60 min at 20° C. Non-specific binding is determined in triplicate using atropine (1 μg/ml, final conc.) as the test substance. After incubation samples are added 5 ml of ice-cold buffer and poured directly onto Whatman GF/C glass fiber filters under suction and immediately washed 2 times with 5 ml of ice-cold buffer. The amount of radioactivity on the filters are determined by conventional liquid scintillation counting. Specific binding is total binding minus non-specific binding.
Test substances are dissolved in 10 ml water, at a concentration of 0.22 mg/ml. 25-75% inhibition of specific binding must be obtained before calculation of IC50.
The test value will be given as IC50 (the concentration (nM) of the test substance which inhibits the specific binding of ^3H-PRZ by 50%).
as §1, §2

Consider `CC(C#Cc1ccc(F)cc1)=CCOc1nsnc1OC1CN2CCC1C2` (stereo not drawn) [Compound 22, Endo (E)-3-(3-(5-(4-fluorophenyl)-3-methyl-2-penten-4-yn-1-yloxy)-1,2,5-thiadiazol-4-yloxy)-1-azabicyclo[2.2.1]heptane], for which the melting point was 82 to 84 °C. This compound also gave an IC50 in data set [1] of 0.19 µM. This compound also showed a half-maximal inhibitory concentration (IC50) in data set [2] of 0.05 µM.
